For the assay, the target named is T1, P2RY8 (Homo sapiens, UniProt Q86VZ1).
T1 construct: purchased Promega (in-house HiBiT-GPCR construct library, NanoBRET)
Briefly: NanoBRET screen HiBiT-P2RY8 in HEK293. Type of assay: binding. On the procedure:
Each tracer candidate was screened across the entire library of HiBiT-GPCR constructs using NanoBRET as the detection modality. As depicted in Figure 4A, the specificity of interactions was evaluated through decrease in BRET due to competitive displacement of a bound tracer by excess parental compound. Each tracer was analyzed for binding to each HiBiT-GPCR fusion in the absence and in the presence of competing parental compound. Briefly, HEK293 cells were transfected with HiBiT-GPCR constructs diluted into promoterless DNA to reduce expression and maximize translocation to the cell surface. Each tracer candidate was then screened at concentrations of 1 μM and 0.1 μM across cells expressing these fusions. Cells were treated for 1.5 h with tracer either alone or in the presence of 20 μM competing parental compound (i.e., control). BRET was measured upon addition of purified LgBiT and subsequent complementation with HiBiT genetically fused to a GPCR. The specificity of interactions was assessed through a decrease in BRET signal due to competitive displacement of the bound tracer. To further gauge the robustness of these interactions, the fold response over the control (i.e., BRETtracer/BRETcontrol) was calculated. We chose a 1.5-fold response, which translates to ≥7-fold signal over noise as the minimal threshold required to score an interaction as positive.
HiBiT-GPCR DNA constructs were diluted in 10 mM Tris pH 8 to a final concentration of 0.01 μg/μL, arrayed in 96-well plates and stored at −20 °C. For transfection, HEK293 cells were suspended in Opti-MEM (without phenol red) supplemented with 2% fetal bovine serum (Seradigm) and 100 units/mL penicillin–streptomycin (Gibco) at a final concentration of 220,000 cells/mL and dispensed into white 96-well plates at 90 μL/well. Subsequent transfections and screens were carried using an Agilent Bravo Automated Liquid Handling Platform. First, the 96-well HiBiT DNA arrays were diluted 25-fold in Opti-MEM (without serum or phenol red) to a final concentration of 0.0004 μg/μL and 20 μL of the diluted DNAs were transferred into new 96-well plates. Next, promoterless carrier DNA (1 μg/μL) was diluted 25-fold (0.04 μg/μL) and then dispensed into the diluted arrays at 20 μL/well. Following brief mixing, Viafect transfection reagent (Promega) diluted 16-fold into Opti-MEM was dispensed into the plates at 40 μL/well. After mixing by pipetting, plates were incubated for 10 min on the pipetting station deck. The DNA-transfection reagent complexes were then added to plates containing cells. To facilitate the screen, 10 μL of DNA-transfection reagent complexes were added in duplicates to the top 4 and bottom 4 rows, resulting in two identical 48-well arrays per plate. Plates with transfected cells were incubated for 18–20 h at 37 °C/5% CO2. A screen of each tracer across the entire library using two different concentrations requires duplicate plates of transfected cells. Depending on the number of tracers being screened, transfections can be scaled up using the same ratios. The next day, for each tracer, four 20× screening solutions in tracer dilution buffer (Promega) were prepared: two duplicates at final concentration of 20 μM and two duplicates at a final concentration of 2 μM. […] The four resulting solutions were diluted 4-fold in Opti-MEM without serum or phenol red to generate 5× solutions (5 µM and 0.5 µM tracer +/− 100 μM competing compound). To screen the library, a BioTek MultiFlo FX liquid dispenser was used to dispense 22.5 µL of tracer solution to the top 4 rows and 22.5 µL tracer + competing compound solution to the 4 bottom rows. Plates were briefly mixed on an orbital shaker and incubated for 1.5 h at room temperature. […] Plates were briefly mixed on an orbital shaker and incubated for 15 min to allow complementation.

T1 sequence (Q86VZ1 whole entry): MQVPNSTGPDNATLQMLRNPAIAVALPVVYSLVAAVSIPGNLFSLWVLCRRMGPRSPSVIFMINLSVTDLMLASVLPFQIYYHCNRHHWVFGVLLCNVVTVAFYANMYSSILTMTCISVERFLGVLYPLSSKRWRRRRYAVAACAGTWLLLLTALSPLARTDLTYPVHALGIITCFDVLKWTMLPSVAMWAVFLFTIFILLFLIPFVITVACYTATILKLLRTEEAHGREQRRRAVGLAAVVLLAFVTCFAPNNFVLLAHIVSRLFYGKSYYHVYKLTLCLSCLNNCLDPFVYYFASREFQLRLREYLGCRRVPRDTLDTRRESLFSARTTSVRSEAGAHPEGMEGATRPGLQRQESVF

Take `COc1ccc2c(n1)c(CCNC(C)=O)cn2CCNC(=O)CCc1ccc2n1[B-](F)(F)[N+]1=C(c3ccc[nH]3)C=CC1=C2` [Azamelatonin-1-NB590]: the “NanoBRET Fold Response” value came to 1.30 (0.1μM tracer) and 1.30 (1μM tracer).
On to `CC(C)N(CC[C@H](c1ccccc1)c1cc(CCNC(=O)c2ccc(CNC(=O)CCc3ccc4n3[B-](F)(F)[N+]3=C(c5ccc[nH]5)C=CC3=C4)cc2)ccc1O)C(C)C` [Tolterodine-BZ-NB590], for which the “NanoBRET Fold Response” value runs as follows: (P2RY8, tracer 0.1μM) 0.96; (P2RY8, tracer 1μM) 1.01.
For `O=C(CCc1ccc2n1[B-](F)(F)[N+]1=C(c3ccc[nH]3)C=CC1=C2)NCCOCCOCCNC(=O)OCCOCCN1CCN(C2=Nc3ccccc3Sc3ccccc32)CC1` [Quetiapine-a-2-NB590], in that order: 0.94 and 0.88.
`Cc1cc2c(s1)Nc1ccccc1N=C2N1CCN(CCCNC(=O)CCOCCOCCOCCOCCNC(=O)CCc2ccc3n2[B-](F)(F)[N+]2=C(c4ccc[nH]4)C=CC2=C3)CC1` [Olanzapine-a-2-NB590]: the “NanoBRET Fold Response” value (P2RY8, tracer 1μM) is 1.13.
With `O=C(CCc1ccc2n1[B-](F)(F)[N+]1=C(c3ccc[nH]3)C=CC1=C2)NCc1ccc(C(=O)NCCOCCOCCNCC(O)COc2cccc3ccccc23)cc1` (stereo not shown) [Propranolol-3-NB590], the “NanoBRET Fold Response” value was determined as 1.11 (P2RY8, 0.1μM) and 1.00 (P2RY8, 1μM).
In the case of `CN1CCN(C2=Nc3cc(Cl)ccc3N(CC(=O)NCCOCCOCCOCCOCCNC(=O)CCc3ccc4n3[B-](F)(F)[N+]3=C(c5ccc[nH]5)C=CC3=C4)c3ccccc32)CC1` [Clozapine-c-2-NB590], the “NanoBRET Fold Response” value is listed as 1.05 (P2RY8, 0.1μM tracer) and 0.79 (P2RY8, 1μM tracer).
`O=C(CCc1ccc2n1[B-](F)(F)[N+]1=C(c3ccc[nH]3)C=CC1=C2)NCc1ccc(C(=O)NCCOCCC(=O)N[C@@H]2CC[C@@]3(O)[C@H]4Cc5ccc(O)c6c5[C@@]3(CCN4CC3CC3)[C@H]2O6)cc1` [Naltrexone-3-NB590]: the “NanoBRET Fold Response” value was determined as 0.86 (P2RY8, tracer 0.1μM) and 0.47 (P2RY8, tracer 1μM).
For `CC(C)N(CC[C@H](c1ccccc1)c1cc(CCNC(=O)CCOCCOCCOCCOCCNC(=O)CCc2ccc3n2[B-](F)(F)[N+]2=C(c4ccc[nH]4)C=CC2=C3)ccc1O)C(C)C` [Tolterodine-2-NB590], in that order: 1.06 and 1.22.
On the same counts, the results for `Cc1nc2n(c(=O)c1CCN1CCC(c3noc4cc(F)ccc34)CC1)CCCC2OC(=O)NCCOCCOCCOCCOCCNC(=O)CCc1ccc2n1[B-](F)(F)[N+]1=C(c3ccc[nH]3)C=CC1=C2` (stereo not shown) [Risperidone-2-NB590] are 1.06 and 0.96.
`O=C(CCOCCOCCOCCOCCNC(=O)CCc1ccc2n1[B-](F)(F)[N+]1=C(c3ccc[nH]3)C=CC1=C2)NCCCN1CCN(C2=Nc3cc(Cl)ccc3Nc3ccccc32)CC1` [Clozapine-a-2-NB590]: the “NanoBRET Fold Response” value runs as follows: (P2RY8, 0.1μM tracer) 0.97; (P2RY8, 1μM tracer) 0.96.
Regarding `COc1ccc2[nH]c(-c3ccc(CNC(=O)CCOCCOCCOCCOCCNC(=O)CCc4ccc5n4[B-](F)(F)[N+]4=C(c6ccc[nH]6)C=CC4=C5)cc3)c(CCNC(C)=O)c2n1` [AzomelatoninICO9-2-NB590], the “NanoBRET Fold Response” value by setting is: (0.1μM tracer) 1.14; (1μM tracer) 1.05.
Consider `CN1CCN(C2=Nc3cc(Cl)ccc3Nc3ccc(CNC(=O)CCOCCOCCOCCOCCNC(=O)CCc4ccc5n4[B-](F)(F)[N+]4=C(c6ccc[nH]6)C=CC4=C5)cc32)CC1` [Clozapine-b-2-NB590], for which the “NanoBRET Fold Response” value is given as 0.97 (P2RY8, 0.1μM tracer) and 0.93 (P2RY8, 1μM tracer).
`COc1ccccc1N1CCN(CCCCN2C(=O)c3ccc(CNC(=O)CCOCCNC(=O)c4ccc(CNC(=O)CCc5ccc6n5[B-](F)(F)[N+]5=C(c7ccc[nH]7)C=CC5=C6)cc4)cc3C2=O)CC1` [NAN-190-3-NB590]: the “NanoBRET Fold Response” value stood at 1.21 (P2RY8, tracer 0.1μM) and 1.12 (P2RY8, tracer 1μM).
On the same counts, the results for `N#CN=C(NCCCOc1cccc(CN2CCCCC2)c1)NCCNC(=O)CCOCCOCCOCCOCCNC(=O)CCc1ccc2n1[B-](F)(F)[N+]1=C(c3ccc[nH]3)C=CC1=C2` [Aminopotentidine-2-NB590] are 1.06 and 1.02.
In the case of `CN(C)CCC=C1c2ccccc2CCc2ccc(C(=O)NCCNC(=O)CCOCCOCCOCCOCCNC(=O)CCc3ccc4n3[B-](F)(F)[N+]3=C(c5ccc[nH]5)C=CC3=C4)cc21` [Amitriptyline-b-2-NB590], the “NanoBRET Fold Response” value was 0.88 (tracer at 0.1μM, listed as amitriptyline-b-2-NB590) and 1.07 (tracer at 1μM, listed as amitriptyline-b-2-NB590).
On to `COc1ccccc1N1CCN(CCCCN2C(=O)c3ccc(CNC(=O)CCOCCOCCOCCOCCNC(=O)CCc4ccc5n4[B-](F)(F)[N+]4=C(c6ccc[nH]6)C=CC4=C5)cc3C2=O)CC1` [NAN-190-2-NB590], for which the “NanoBRET Fold Response” value (P2RY8, tracer 0.1μM) came to 0.99 and the “NanoBRET Fold Response” value (P2RY8, tracer 1μM) turned out to be 1.14.
On the same counts, the results for `O=C(CCOCCOCCOCCOCCNC(=O)CCc1ccc2n1[B-](F)(F)[N+]1=C(c3ccc[nH]3)C=CC1=C2)NCCCN1CCN(C2=Nc3ccccc3Oc3ccc(Cl)cc32)CC1` [Loxapine-a-2-NB590] are 0.95 and 0.87.
For the compound `CN(CCC=C1c2ccccc2CCc2ccccc21)C(=O)CCOCCOCCOCCOCCNC(=O)CCc1ccc2n1[B-](F)(F)[N+]1=C(c3ccc[nH]3)C=CC1=C2` [Amitriptyline-e-2-NB590], for the setting “tracer at 1μM”, the “NanoBRET Fold Response” value came to 0.99.
Consider `CCCn1c(=O)c2[nH]c(-c3ccc(OCC(=O)NCCNC(=O)CCOCCNC(=O)c4ccc(CNC(=O)CCc5ccc6n5[B-](F)(F)[N+]5=C(c7ccc[nH]7)C=CC5=C6)cc4)cc3)nc2n(CCC)c1=O` [XAC-3-NB590], for which the “NanoBRET Fold Response” value by setting is: (P2RY8, tracer 0.1μM) 1.30; (P2RY8, tracer 1μM) 0.83.
With `CN(C)CCC=C1c2ccccc2CCc2ccc(C(=O)NCCNC(=O)CCOCCOCCOCCOCCNC(=O)CCc3ccc4n3[B-](F)(F)[N+]3=C(c5ccc[nH]5)C=CC3=C4)cc21` [Amitriptyline-a-2-NB590], the “NanoBRET Fold Response” value (tracer at 0.1μM) is on record as 1.05 and the “NanoBRET Fold Response” value (tracer at 1μM) amounted to 0.90.
On to `CCOC(=O)c1cc(C#N)c(N2CCC(C(=O)NS(=O)(=O)Cc3ccccc3/C=C/C(=O)NCCNC(=O)CCc3ccc4n3[B-](F)(F)[N+]3=C(c5ccc[nH]5)C=CC3=C4)CC2)nc1C` [AZD1283-1-NB590], for which the “NanoBRET Fold Response” value stood at 1.56 (P2RY8, 0.1μM) and 1.89 (P2RY8, 1μM).

The values are drawn from publication PMC8151276, “An Integrated Approach toward NanoBRET Tracers for Analysis of GPCR Ligand Engagement” (Molecules, 2021).
